Test results from US9676727B2, “Myxovirus therapeutics, compounds, and uses related thereto” (priority 2011, dated 2017).
Values after ≈ are worked out from the molar mass of the structure shown. Read-outs that look alike come from different tables or passages of the source. Blank lines part the entries; values can stand above or below the compound they belong to.

How the values were obtained:
MV-Alaska [1] = experiment: Viral CPE-reduction assay (MeV-Alaska in Vero-SLAM cells, crystal violet); format: cell-based, Measles virus (MeV); conditions: Measles morbillivirus
Method: Methods for evaluating viral activity are provided for in Yoon et al., J Biomol Screen., 2008, 13(7): 591-608 and Krumm et al., PLoS ONE, 2011, 6(5), e20069, both hereby incorporated by reference in their entirety. In certain instances, Vero-SLAM cells were infected with MeV-Alaska in four replicates per compound concentration in a 96-well plate format at an MOI of 0.4 pfu/cell in the presence of the inhibitor. At 96 hours post-infection, cell monolayers were subjected to crystal violet staining (0.1% crystal violet in 20% ethanol), and the absorbance of dried plates at 560 nm determined. Virus-induced cytopathicity was then calculated according to the formula [% rel. CPE=100-(experimental-minimum)/(maximum-minimum)*100], with minimum referring to infected, vehicle-treated wells and maximum to mock-infected wells.

MV-Alaska [2] = experiment: Virus yield (virus titer) reduction assay; format: cell-based, Measles virus (MeV); conditions: Measles morbillivirus
[3] = Aqueous solubility by nephelometry; format: physicochemical; conditions: for solubility: buffer, pH 7.4, aqueous buffer, kinetic from dmso stock
MTT cytotoxicity = format: cell-based; conditions: African green monkey, Vero cells; averages of at least three experiments; highest concentration assessed 75 μM
[4] = Pharmacokinetic study in rat, plasma concentration after dosing; format: in vivo, Sprague-Dawley rat; conditions: for AUC(0-inf) / AUC (0-t) / Cmax / Tmax / half-life: suspension in PEG200/0.5% methylcellulose (10/90); for AUC (0-t): read-out: AUC (0-t); for Cmax: read-out: Cmax; for Tmax: read-out: Tmax; for half-life: read-out: T½ (converted)
Method: Preliminary pharmacokinetic (PK) studies in the Sprague-Dawley rat compared AS-136a with compounds 2k and 2o following p.o. dosing by oral gavage at 10 mg/kg and 50 mg/kg in a PEG200/0.5% methylcellulose (10/90) vehicle (n=4/group).
The data from the preliminary pharmacokinetic studies using the 6-hour time point are reported for comparison purposes. […] On the basis of its excellent in vitro potency, good solubility and pharmacokinetic profile, compound 2o was chosen for further bioavailability evaluation.

[5] = Sprague-Dawley, plasma, oral 10 mg/kg
[6] = Sprague-Dawley, plasma, oral 50 mg/kg

EC50 (MV-Alaska [1]; Table 1, piperidine series, read-out: EC50 (μM) (MV-Alaska) (CPE inhib.)): 4.5 µM | EC50 (MV-Alaska [1]; Table 3, averages of four experiments, concentration range 2.3-75 μM, read-out: EC50 (μM) (MV-Alaska) CPE inhibition): 4.5 µM | solubility ([3]; Nephelometer, read-out: Aqueous solubility (μg/ml) Test): 60 µg/mL (≈ 113 µM) | solubility ([3]; nephelometry, read-out: aqueous solubility): ~60 µg/mL (≈ 113 µM) | AUC(0-inf) [4, 5]: 818 ng·h/mL | AUC (0-t) [4, 5]: 683 ng·h/mL | Cmax [4, 5]: 195 ng/mL | Tmax [4, 5]: 1.1 h | half-life [4, 5]: 2.2 h | AUC(0-inf) [4, 6]: 7860 ng·h/mL | AUC (0-t) [4, 6]: 3520 ng·h/mL | Cmax [4, 6]: 823 ng/mL | Tmax [4, 6]: 1.5 h | half-life [4, 6]: 6.5 h | bioavailability ([4]; Sprague-Dawley, plasma, oral, 2 mg/kg i.v. and 10 mg/kg p.o., read-out: oral bioavailability (F)): 39% | exposure (AUC/Cmax) increase in rat relative to AS-136a ([4]; p.o.): 10 fold | dose proportionality ([4]; p.o., range of 10 mg/kg to 50 mg/kg): near dose proportionality
Structure (SMILES): Cn1nc(C(F)(F)F)cc1C(=O)Nc1ccc(S(=O)(=O)N2CCCCC2CCN2CCOCC2)cc1 (single isomer, unassigned) [Compound 2o, 1-methyl-N-(4-((2-(2-morpholinoethyl)piperidin-1-yl)sulfonyl)phenyl)-3-(trifluoromethyl)-pyrazole-5-carboxamide]
EC50 (MV-Alaska [2]; MV-Alaska, read-out: EC50 in the virus titer reduction assay): 0.02 µM | EC50 (MV-Alaska [2]; averages of two to four experiments ± SEM, highest concentration assessed 1 μM, read-out: EC50 (μM) (MV-Alaska) virus titer reduction): 0.02 µM | CC50 (MTT cytotoxicity): > 75 µM

EC50 (MV-Alaska [1]; Table 2, phenyl and acyclic series, read-out: EC50 (μM) (MV-Alaska) (CPE inhibition)): 4.5 µM | Aqueous solubility (μg/ml) Test ([3]; Nephelometer, buffer pH=7.4): 67 µg/mL
Structure (SMILES): Cn1nc(C(F)(F)F)cc1C(=O)Nc1ccc(S(=O)(=O)c2ccccc2O)cc1 [Compound 3c, N-(4-((2-hydroxyphenyl)sulfonyl)phenyl)-1-methyl-3-(trifluoromethyl)-pyrazole-5-carboxamide]
CC50 (MTT cytotoxicity): ≥ 75 µM
